Experiments:
[1] = biological target: T1, Brd4 bromodomain 1 (BRD4(1)) (Homo sapiens, UniProt O60885); test: Inhibition of tetra-acetylated histone H4 binding to BET bromodomains (TR-FRET); parameters: key: Active: Compounds with an IC50 value less than 30 μM were deemed to be active.; Not Active: Compounds with an IC50 value less than 30 μM were deemed to be active; details: first bromodomain of Brd4, tetra-acetylated histone H4 peptide
T1 construct: made in house; host or cells: E. coli BL21(DE3)
Description: Proteins were cloned and overexpressed with a N-terminal 6×His tag, then purified by nickel affinity followed by size exclusion chromatography. Briefly, E. coli BL21(DE3) cells were transformed with a recombinant expression vector encoding N-terminally Nickel affinity tagged bromodomains from Brd2, Brd3, Brd4. Cell cultures were incubated at 37° C. with shaking to the appropriate density and induced overnight with IPTG. The supernatant of lysed cells was loaded onto Ni-IDA column for purification. Eluted protein is pooled, concentrated and further purified by size exclusion chromatography. Fractions representing monomeric protein were pooled, concentrated, aliquoted, and frozen at −80° C. for use in subsequent experiments.
Binding of tetra-acetylated histone H4 and BET bromodomains was confirmed by a Time Resolved Fluorescence Resonance Energy Transfer (TR-FRET) method. N-terminally His-tagged bromodomains (200 nM) and biotinylated tetra-acetylated histone H4 peptide (25-50 nM, Millipore) were incubated in the presence of Europium Cryptate-labeled streptavidin (Cisbio Cat. #610SAKLB) and XL665-labeled monoclonal anti-His antibody (Cisbio Cat. #61HISXLB) in a white 96 well microtiter plate (Greiner). For inhibition assays, serially diluted test compound was added to these reactions in a 0.2% final concentration of DMSO. Final buffer concentrations were 30 mM HEPES pH 7.4, 30 mM NaCl, 0.3 mM CHAPS, 20 mM phosphate pH 7.0, 320 mM KF, 0.08% BSA). After a 2-h incubation at room temperature, the fluorescence by FRET was measured at 665 and 620 nm by a SynergyH4 plate reader (Biotek). The binding inhibitory activity was shown by a decrease in 665 nm fluorescence relative to 620 nm. IC50 values were determined from a dose response curve.

With `COc1cc(OC)c2c(=O)[nH]c(-c3ncccc3NCCN3CCOCC3)nc2c1` [Example 49, 5,7-Dimethoxy-2-(3-((2-morpholinoethyl)amino)pyridine-2-yl)quinazolin-4(3H)-one] the “FRET activity BRD4(1)” value [1] was “Active” and the melting point was 168 to 170 °C.

With `COc1cncc2nc(-c3ncccc3NC3CCN(C(C)C)CC3)[nH]c(=O)c12` [Example 58, 2-(3-((1-Isopropylpiperidin-4-yl)amino)pyridin-2-yl)-5-methoxypyrido[3,4-d]pyrimidin-4(3H)-one] the “FRET activity BRD4(1)” value [1] was “Active” and the melting point was 237 to 238 °C.

With `COc1cc(OC)c2c(=O)[nH]c(-c3ncccc3N[C@H]3CC[C@@H](C(=O)N(C)C)CC3)nc2c1` [Example 53, cis-4-((2-(5,7-Dimethoxy-4-oxo-3,4-dihydroquinazolin-2-yl)pyridin-3-yl)amino)-N,N-dimethylcyclohexane-1-carboxamide] the “FRET activity BRD4(1)” value [1] was “Active” and the melting point was 276 to 278 °C.

With `COc1ccc(-c2nc3cc(OC)cc(OC)c3c(=O)[nH]2)c(NC2CCN(Cc3ccccc3)CC2)c1` [Example 35, 2-(2-((1-Benzylpiperidin-4-yl)amino)-4-methoxyphenyl)-5,7-dimethoxyquinazolin-4(3H)-one] the “FRET activity BRD4(1)” value [1] was “Active”.

For `COc1ccc(-c2nc3cc(OC)cc(OC)c3c(=O)[nH]2)c(NCCCN2CCOCC2)c1` [Example 13, 5,7-Dimethoxy-2-(4-methoxy-2-((3-morpholinopropyl)amino)-phenyl)quinazolin-4(3H)-one], the “FRET activity BRD4(1)” value [1] was “Active” and the melting point was 234 to 235 °C.

For `COc1cc(OC)c2c(=O)[nH]c(-c3ccc(Cl)cc3NC3CCN(C(C)C)CC3)nc2c1` [Example 33, 2-(4-Chloro-2-((1-isopropylpiperidin-4-yl)amino)phenyl)-5,7-dimethoxyquinazolin-4(3H)-one], the melting point was 265 °C (dec.).

In the case of `COc1cnc(-c2nc3cc(OC)cc(OC)c3c(=O)[nH]2)c(NC2CCN(C)CC2)c1` [Example 40, 5,7-Dimethoxy-2-(5-methoxy-3-((1-methylpiperidin-4-yl)amino)pyridin-2-yl)quinazolin-4(3H)-one], the “FRET activity BRD4(1)” value [1] is reported as “Active” and the melting point is reported as 191 to 193 °C.

For `COc1ccc(-c2nc3cc(OC)cc(OC)c3c(=O)[nH]2)c(C(=O)N2CCN(C)CC2)c1` [Example 2, 5,7-Dimethoxy-2-(4-methoxy-2-(4-methylpiperazine-1-carbonyl)phenyl) quinazolin-4(3H)-one], the “FRET activity BRD4(1)” value [1] was “Active”.

For `COc1ccc(-c2nc3cc(OC)cc(OC)c3c(=O)[nH]2)c(N(C)C2CCN(C)CC2)c1` [Example 5, 5,7-Dimethoxy-2-(4-methoxy-2-(methyl(1-methylpiperidin-4-yl)amino)phenyl) quinazolin-4(3H)-one], the melting point was 217 to 218 °C.

In the case of `COc1ccc(-c2nc3cc(OC)cc(OC)c3c(=O)[nH]2)c(NC2CCC(C)(C)CC2)c1` [Example 29, 2-(2-((4,4-Dimethylcyclohexyl)amino)-4-methoxyphenyl)-5,7-dimethoxyquinazolin-4(3H)-one], the “FRET activity BRD4(1)” value [1] is reported as “Active”.

For `COc1cnc(-c2nc3cc(OC)cc(OC)c3c(=O)[nH]2)c(N[C@H]2CC[C@@H](NC(=O)C(C)C)CC2)c1` [Example 38, N-(cis-4-((2-(5,7-Dimethoxy-4-oxo-3,4-dihydroquinazolin-2-yl)-5-methoxypyridin-3-yl)amino)cyclohexyl)isobutyramide], the melting point was 285 °C (dec.).

In the case of `COc1cc(N)cc2nc(-c3ncccc3NC3CCN(C(C)C)CC3)[nH]c(=O)c12` [Example 65, 7-amino-2-(3-((1-Isopropylpiperidin-4-yl)amino)pyridin-2-yl)-5-methoxyquinazolin-4(3H)-one], the “FRET activity BRD4(1)” value [1] is reported as “Active”.

In the case of `COc1cc(OC)c2c(=O)[nH]c(-c3cccc(NC4CCN(C(C)C)CC4)c3)nc2c1` [Example 27, 2-(3-((1-Isopropylpiperidin-4-yl)amino)phenyl)-5,7-dimethoxyquinazolin-4(3H)-one], the “FRET activity BRD4(1)” value [1] is reported as “Active”.

Reference: patent US10500209B2, “Quinazolinones as bromodomain inhibitors” (Zenith Epigenetics Ltd., priority 2013, dated 2019)
